Data on 18 compounds can be found in PMC6213047, “Design of Antibacterial Agents: Alkyl Dihydroxybenzoates against Xanthomonas citri subsp. citri” (International Journal of Molecular Sciences, 2018).

Series [1] has as its system X. citri subsp. citri strain 306 (IBSBF 1594). Briefly: MBC, REMA plates replicated to Petri dishes. It counts as cell-based, Xanthomonas citri subsp. citri. To be noted: Xanthomonas citri; Petri dishes from REMA plates, 29 °C, 24 to 48 h; read-out: MBC. The procedure:
The minimal bactericidal concentration (MBC) was determined by observing the bacterial growth in Petri dishes transferred from the REMA plates.
(§1) The antibacterial activity of alkyl dihydroxybenzoates and the determination of minimum inhibition concentration (MIC) were performed by the fluorimetric method Resazurin Microtiter Assay (REMA) with some modifications. An overnight culture of X. citri subsp. citri strain 306 (IBSBF 1594) was grown in 20 mL in Nitrogen Yeast Glycerol (NYG) at 29 °C in constant agitation of 180–200 rpm. After 12 h, the Xcc inoculum was dispersed in NYG medium and distributed into a 96 well microtiter plate to a final volume of 100 μL per well (10^5 CFU per well). Stock solutions of tested compounds at 10 mg mL^−1 were prepared in dimethyl sulfoxide (DMSO) and dispersed in NYG medium to obtain 1% DMSO and the final compound concentration range of 0.78–100 μg mL^−1. The negative control was constituted of 100 μL culture medium. In addition, the copper oxychloride was tested as a comparison to alkyl dihydroxybenzoates and kanamycin (20 μg mL^−1), which was used as a control antibiotic. The plate was subsequently incubated at 29 °C for 12 h, and 15 μg mL^−1 freshly prepared resazurin solution in water was added to each well, and the plate was incubated for 2 h. The fluorescence was determined on a Synergy H1 (BioTek, Winooski, VT, USA) microplate reader using the excitation and emission filters at wavelengths of 530 and 590 nm respectively. After the REMA assay, the minimum bactericidal concentration (CBM) assay was performed using a 96-pin stainless steel plate replicator, accurately transferring the wells from the REMA plate to Petri dishes Petri dishes were incubated in oven B.O.D. at 29 °C for 24 to 48 h. The experiments were performed in triplicate.

The test system is the same in series [2]. In words: MIC by Resazurin Microtiter Assay (REMA). The series is classed as cell-based, Xanthomonas citri subsp. citri. The conditions noted are these: 12 h, REMA, NYG medium, 29 °C. The procedure:
The antibacterial potential of carboxylic acids and their esters were compared to copper oxychloride (a commercial active often used to combat citrus canker). Minimal inhibitory concentration (MIC) values were determined by REMA assay, which measures cellular respiratory activity.
as §1
In general terms: The colour change of resazurin is a common sign of viable cells or microbes.

The nature of series [3]: Partition coefficient log Po/w by HPLC (OECD 117). To be noted: HPLC method, OECD 117, methanol:water 3:1. It counts as physicochemical. As for the experimental part:
The analyses were performed with the use of an isocratic flow in methanol: water (3:1) at 1.0 mL min^−1. We injected 20.0 μL and analyses were performed at 254 nm. We used as reference compounds thiourea, phenol, acetophenone, benzoic acid, benzene, toluene, biphenyl, fluoranthene and triphenylamine in order to construct the curve log K × log Po/w. The lipophilicity of alkyl dihydroxybenzoates was determined from their retention times and interpolation in linearity curve log K × log Po/w. We performed the analyses in duplicate.

In series [4] the test system is MRC-5 (human lung fibroblast cell line). In words: Cytotoxicity MTT assay, MRC-5. It counts as cell-based. The conditions noted are these: MTT, 24 h treatment; read-out: IC50 MRC-5. As for the experimental part: (§2) This test is based on the reduction of 3-(4,5-dimethyl-2-thiazolyl)-2,5-diphenyl-2-tetrazole bromide by viable cells, with formation of violet insoluble formazan crystals. Five cell lines were used in order to evaluate the cytotoxic effect of the compounds as a whole.
(§3) The cytotoxicity of compounds 4, 16, 28 and copper oxychloride was determined by MTT assay. The cell lines used were HaCaT (human keratinocyte cell line—CLS 300493), Huh-7.5 (human hepatoma cell line—ATCC® PTA-8561), MRC-5 (human lung fibroblast cell line—ATCC CCL-171), VERO (monkey kidney epithelial cell line—ATCC® CCL81) and ACHN (human renal adenocarcinoma cell line—ATCC® CRL1611). The cells were cultured in appropriate medium recommended by the American Type Culture Collection.
(§4) The assay was performed with the concentration of 10^4 cells for both cell lines, distributed in 96-well plates and incubated at 37 °C in a 5% CO2 controlled atmosphere oven for 24 h. After the incubation period, the cells were treated with the compounds with a range of 1.56–200 μmol L^−1 and incubated for 24 h. The supernatant was removed, then 100 μL of 3-(4,5-dimethyl-2-thiazolyl)-2,5-diphenyl-2H-tetrazolium (MTT) salt at 1 mg mL^−1 diluted in DMEM medium (Gibco Life Technologies, Gaithersburg, MD, USA) was added and incubated for 30 min. Subsequently, the MTT was removed, then 100 μL of DMSO under agitation for 5 min at 60 rpm was added. The plates were read at 570 nm in a FLUOstar Omega/BMG LABTECH plate reader, Offenburg, BW, DE. We carried out the experiments in triplicate and three independent events for statistical analysis (GraphPad Software, San Diego, CA, USA). The MTT assay is based on the tetrazolium salt (yellow-colored) reduction to formazan (purple-colored) by metabolically active cells.

Series [5] deals with ACHN (human renal adenocarcinoma cell line). Briefly: Cytotoxicity MTT assay, ACHN. The series is classed as cell-based. The conditions noted are these: MTT, 24 h treatment; read-out: IC50 ACHN. As for the experimental part: as §2, §3, §4
Series [6] deals with Huh-7.5 (human hepatoma cell line). Briefly: Cytotoxicity MTT assay, Huh-7.5. It counts as cell-based. To be noted: MTT, 24 h treatment; read-out: IC50 Huh-7,5. As for the experimental part:
as §2, §3, §4
(In general: Tetrazolium assays rely on reduction of a dye to a coloured formazan, in cell work by metabolically active cells.)

Series [7] deals with VERO (monkey kidney epithelial cell line). In words: Cytotoxicity MTT assay, VERO. To be noted: MTT, 24 h treatment; read-out: IC50 VERO. The series is classed as cell-based. As for the experimental part:
as §2, §3, §4

Series [8] deals with HaCaT (human keratinocyte cell line). Briefly: Cytotoxicity MTT assay, HaCaT. To be noted: MTT, 24 h treatment; read-out: IC50 HaCaT. The series is classed as cell-based. As for the experimental part: as §2, §3, §4
Series [9] has as its system Xcc cells membrane integrity. In words: Cellular membrane permeability of Xcc, Live/Dead BacLight kit. The series is classed as cell-based, Xanthomonas citri subsp. citri. To be noted: compounds at ¼ MIC, 15 min; nisin as positive control. As for the experimental part:
Membrane integrity was measured by using the commercial assay Live/Dead BacLight® bacterial viability kit (Invitrogen, Carlsbad, CA, USA). We observed cells with intact membrane in fluorescent blue (SYTO 9) and cells with disturbance or affected membrane integrity in red or pink (propidium iodide). The data analyses were plotted as the percentage of cells permeated by propidium iodide (Figure 2).
Phase contrast microscopy was used to observe changes in cell shape and signs of cell division alteration using an objective lens with a magnification of 100×. To evaluate the Xcc cells’ membrane integrity, the BacLight® kit was used. Mixtures of SYTO 9 dyes and propidium iodide (PI). SYTO 9 (blue) can stain nucleic acids in general—with intact or damaged membranes. On the other hand, PI (red) penetrates only the bacteria with damaged membranes, causing overlap in the fluorescence of SYTO 9. Therefore, using a mixture of the dyes, the bacteria with disturbed cell membranes are stained in fluorescent red and the intact cell membranes are stained in fluorescent blue. […] Cellular immobilization was performed on slides containing 1% agarose gel in 0.85% saline buffer. The slides were prepared with 1.0 mL of the agarose solution, which was dispersed in optical microscopy slides and on each slide another slide was placed so that the gel continued like a thin film and was of homogeneous height. The slides were dried at room temperature for approximately 20 min and opened at the time of use, when 10 μL of the cell suspension was deposited in the center and covered with the cover slip. The cells were visualized using the Olympus BX-61 optical microscope equipped with OrcaFlash 2.8 monochrome camera (Hamamatsu, Shizuoka, Japan). Cell Sensation software v11 (Olympus) was used to document and analyze the images.

Where [10] appears, read: Xanthomonas citri, read-out: MIC.
Setting [11] is: Xanthomonas citri, read-out: MIC in μM.

Read-outs that look alike come from different tables or passages of the source.

By MBC is commonly meant the lowest tested concentration that kills the bacteria rather than only halting them. What is called MIC is the lowest concentration found to suppress growth. As a reminder, the chromatographic logP is lipophilicity estimated from chromatographic retention. Turning to `CCCCCCCCCCOC(=O)c1cc(O)ccc1O` [Compound 19], in [1], the MBC is > 100 µg/mL. The MIC in [2] (setting [10]) was > 100 µg/mL; in series [2] (setting [11]), > 340 µM. For the same compound, the chromatographic logP in series [3] was 6.3.
On to `CCCCCCCCCCCCOC(=O)c1cc(O)ccc1O` [Compound 20], for which, in series [1], the MBC is > 100 µg/mL. The MIC was > 100 µg/mL in series [2] (setting [10]) and > 310 µM in [2] (setting [11]). The compound further had a chromatographic logP in series [3] of 6.8.
Turning to `CC(C)OC(=O)c1cc(O)ccc1O` [Compound 21], the MBC in [1] was > 100 µg/mL. Moreover, the results for the minimum inhibitory concentration (MIC) in series [2] (setting [10]) and in series [2] (setting [11]) were > 100 µg/mL and > 510 µM, respectively. The compound further came in with a chromatographic logP in [3] of 2.2.
Consider `O=C(OC1CCCC1)c1cc(O)ccc1O` [Compound 22], for which, in series [1], the minimal bactericidal concentration (MBC) is 100 µg/mL. Moreover, the MIC in [2] (setting [10]) is 83.5 µg/mL; in series [2] (setting [11]) it was 375 µM. For the same compound, in series [3], the chromatographic logP stood at 3.
Regarding `O=C(OC1CCCCC1)c1cc(O)ccc1O` [Compound 23], the MBC in series [1] was 100 µg/mL. Also, the results for the MIC in [2] (setting [10]) and in [2] (setting [11]) were 90.4 µg/mL and 382 µM, respectively. This compound gave a chromatographic logP in [3] of 3.5.
`O=C(OCCc1ccccc1)c1cc(O)ccc1O` [Compound 24]: the MBC in [1] is 100 µg/mL. In addition, the MIC in series [2] (setting [10]) worked out at 59.7 µg/mL; in series [2] (setting [11]), 231 µM. Besides, the chromatographic logP in [3] stood at 3.1.
As for `CCOC(=O)c1ccc(O)c(O)c1` [Compound 25], the MBC in series [1] is > 100 µg/mL. Moreover, the MIC in series [2] (setting [10]) is > 100 µg/mL; in [2] (setting [11]), > 549 µM. For the same compound, the chromatographic logP in series [3] turned out to be 1.7.
Consider `CCCCOC(=O)c1ccc(O)c(O)c1` [Compound 26], for which the MBC in [1] is > 100 µg/mL. Moreover, the values for the MIC in [2] (setting [10]) and in series [2] (setting [11]) were > 100 µg/mL and > 475 µM, respectively. In series [3], this compound returned a chromatographic logP of 2.6.
Take `CCCCCCOC(=O)c1ccc(O)c(O)c1` [Compound 27]: the MBC in series [1] was determined as 50 µg/mL. The figures for the MIC in [2] (setting [10]) and in series [2] (setting [11]) were 44.4 µg/mL and 186 µM, respectively. The compound also showed a chromatographic logP in series [3] of 3.7.
Turning to `CCCCCCCCOC(=O)c1ccc(O)c(O)c1` [Compound 29], the MBC in series [1] stood at 50 µg/mL. Also, the MIC in [2] (setting [10]) is 31.2 µg/mL; in series [2] (setting [11]), 117 µM. In series [3], this compound gave a chromatographic logP of 4.9.
The like results for `CCCCCCCCCOC(=O)c1ccc(O)c(O)c1` [Compound 30] were, in that order, 50 µg/mL, 26.7 µg/mL, 95 µM and 5.5.
For `CCCCCCCCCCCCOC(=O)c1ccc(O)c(O)c1` [Compound 32], in series [1], the MBC was > 100 µg/mL. The results for the MIC in series [2] (setting [10]) and in [2] (setting [11]) were > 100 µg/mL and > 310 µM, respectively. In [3], this compound displayed a chromatographic logP of 6.9.
In the case of `CC(C)OC(=O)c1ccc(O)c(O)c1` [Compound 33], the MBC in series [1] is > 100 µg/mL. Further, the MIC in series [2] (setting [10]) was > 100 µg/mL; in series [2] (setting [11]), > 510 µM. In series [3], the chromatographic logP is 1.4.
For the compound `O=C(OC1CCCC1)c1ccc(O)c(O)c1` [Compound 34], the MBC in series [1] was > 100 µg/mL. For the same compound, the results for the MIC in [2] (setting [10]) and in series [2] (setting [11]) were > 100 µg/mL and > 450 µM, respectively. This compound showed a chromatographic logP in series [3] of 2.2.
With `O=C(OC1CCCCC1)c1ccc(O)c(O)c1` [Compound 35], the MBC in series [1] was > 100 µg/mL. Further, the values for the MIC in [2] (setting [10]) and in series [2] (setting [11]) were > 100 µg/mL and > 423 µM, respectively. Further, the chromatographic logP in [3] came out at 2.7.
`O=C(OCCc1ccccc1)c1ccc(O)c(O)c1` [Compound 36]: the MBC in [1] came to 100 µg/mL. Besides, the MIC in series [2] (setting [10]) is < 100 µg/mL; in series [2] (setting [11]), 345 µM. Moreover, in [3], the chromatographic logP is 2.4.
Broadly, the IC50 is the concentration needed to halve the response being measured. For `NC[C@H]1O[C@H](O[C@H]2[C@H](O)[C@@H](O[C@H]3O[C@H](CO)[C@@H](O)[C@H](N)[C@H]3O)[C@H](N)C[C@@H]2N)[C@H](O)[C@@H](O)[C@@H]1O` [Kanamycin, kanamycin, reference compound], the half-inhibitory concentration (IC50) in [4], in series [5], in series [6], in series [7] and in series [8] was > 200 µM each time. Further, the MIC in series [2] worked out at 19.9 µg/mL; in [2] (read-out: MIC in μM), 40 µM.
In the case of nisin [reference compound], the “percentage of cells permeated by propidium iodide” value in [9] amounted to 79.47%.
